3 sequences from patent US8637040B2, “Genus-wide chlamydial peptide vaccine antigens” (priority 2008, dated 2014) can be followed below.

Assay [1] has as its system Pep4, Pep7, Pep8, Pep10. The experiment in a line: Cross-reactivity between peptides in ELISA. It counts as binding. The settings on record: sera of mice immunized with a single peptide. As to the method: (§1) Blood was collected prior to immunizations and prior to the two boosts. Sera were tested in ELISA. The ELISA method used in the present examples, in which many if not all the parameters and conditions may be varied or modified in ways that are completely conventional in the art, is described below. • 1. 96 well plates (Immulon HBX4) were coated with 50 μl of diluted antigen (peptides at 1 μg/well made in carbonate buffer) and incubated overnight at 4° C. • 2. Unbound antigen was removed by flicking the contents of the plate into a sink without further washing. • 3. Non-specific binding was blocked or prevented by adding 300 μL/well of 4% BSA/PBS-Tween 20 (0.05%). This was allowed to incubate for 2 hour at room temperature. • 4. The plates were washed once with PBS-Tween 20 (0.05%) and 50 μl of primary antibody was added per well at appropriate dilutions. When using serum, the starting dilution was 1:40 and was further diluted by doublings to 1:80, 1:160, and 1:320 (or higher as desired). Plates were incubated for 1 hour at 37° C. • 5. Plates were washed three times with PBS-Tween (0.05%) as above and 100 μl of secondary antibody was added per well at appropriate dilutions. For alkaline phosphatase-conjugated goat anti-mouse IgG-AP, a dilution of 1:500 was used here. Plates were incubated for 1 hour at 37° C. • 6. Plates were again washed three times as above and 200 μl of substrate solution for Alkaline phosphatase (p-nitro phenyl phosphate or pNPP) was added at a concentration of 5 mg/ml. The color reaction was read in an automated microplate reader at a frequency of […] and the absorbance (or optical density) was registered (referred to as A405 or OD405) Several important observations were made in these tests against the 4 peptides: (a) all 4 peptides were immunogenic and induced increasing anti-peptide responses with subsequent boosts in all mice (except in one non-responder) (FIG. 3). […] See also FIG. 16A-16B
Both of these are category #1 peptides. […] That supports the notion that CDR1 and CDR3 of mAb2 are antigenically distinct.
(An ELISA detects its analyte on a solid surface through an enzyme-linked reagent.)

Assay [2] deals with C. trachomatis-infected HEp2 cells. The experiment in a line: Indirect immunofluorescence of immune sera on infected HEp2 cells. It counts as cell-based, human. The settings on record: sera 1:40 dilution, FITC anti-mouse IgG. An excerpt:
Micrographs of HEp2 cells infected with C. trachomatis are immunostained (by indirect immunofluorescence) with sera (1:40 dilution) from mice immunized with the designated peptides (A-E) or soluble. mAb2 (F). FITC anti-mouse IgG was the detecting antibody. Arrows point to distinct differences in targets of the immune sera. Antibodies in panels A-C recognized EB and RB and possibly some matrix material in the inclusion. Antibodies in D-E also recognized targets in the inclusion matrix and inclusion membrane, similar to immune sera raised against the older vaccine candidate, the entire mAb2 (F). 40× original magnification. Samples are counterstained with Evans blue.
HEp2 cells were infected with C. trachomatis were subjected to cytocentrifugation to deposit them onto microscope slides. After fixation (MeOH) they were stained with sera (1:40 dilution) from mice immunized with the indicated peptides or with soluble mAb2. The binding of the antibodies to the cells was detected using a fluorescent (FITC-labeled) secondary Ab, an anti-mouse IgG. Results appear in FIGS. 9A-F.

Assay [3] relates to C trachomatis. As to the kind of experiment: DFA staining of vaginal smears after challenge of peptide-immunized mice. It counts as in vivo, mouse. The conditions noted are these: mice immunized three times at 100 μg doses; days 7 and 14 post-challenge. An excerpt:
Mice are challenged with a human biovar of C trachomatis (K or E serovars for urogenital infections; C or B serovars for ocular infection).
Groups of 4-8 mice are “masked” as to pretreatment before challenge with live elementary bodies (EB). At weekly intervals through at least 4 wks, vaginal (or conjunctival) swabs are collected for isolation culture and direct fluorescence antibody staining for EB.
Using the murine models described above, the present inventors immunized mice with one of the four peptides (Pep4, 7, 8 or 10) administered three times at 100 μg doses. Results of direct fluorescent antibody (DFA) staining are summarized for days 7 and 14 post-challenge in FIGS. 10-11.

Assay [4] relates to human sera. The experiment in a line: ELISA of human serum samples on 4 peptides (Example XI). It counts as binding. Here is the method: as §1
Human sera were tested by PCR for expression of several chlamydial genes, by IHC against C. trachomatis-infected cells and by ELISA against several of the peptides of the present invention. Results are shown in Table 7 (below) which include results from PCR-studies for presence of DNA encoding the chlamydial Major Outer Membrane Protein (MOMP) in human peripheral blood mononuclear cells (PBMC) (which are primarily lymphocytes and monocytes) and cervical swabs
Also shown is IHC staining of C. trachomatis-infected human HEp2 cells and binding of antibodies in the patient samples to four peptides of the present invention (Pep4, 7, 8, and 10) in ELISA.

For assay [5], the system named is chlamydia. As to the kind of experiment: Gross anatomical observation of genital tract inflammation after challenge. It counts as in vivo, mouse. The conditions noted are these: female mice primed and boosted twice SC, necropsy ~28 days post-challenge, vs adjuvant-only control. An excerpt: FIG. 15A-15C is a set of three photographs showing the gross morphology of tissues of the female reproductive tract of mice immunized and then challenged 28 days earlier with Pep4 or Pep7. Mice had been primed and boosted twice SC, as above, and were challenged with chlamydia 2 weeks later, rechallenged and sacrificed 4 weeks after re-challenge. Inflamed genital tracts outlined in dashed lines.
Genital tracts were exposed at necropsy ˜28 days post-challenge to score inflammatory changes (and then removed for histological analysis). […] Representative examples for recipients of Peptides 4 and 7 are shown in the center and right panels, respectively. Yellow arrows point to uterine horns (which are further demarcated with dashed lines). It is evident that the peptide immunogens reduced the gross pathology of the genital tract even weeks after challenge. This has been reproduced in a second experiment in which control mice received an irrelevant peptide instead of Peptides 4 or 7. Based on what is known in the art from other contexts, the histopathological results are expected to be consistent with these gross anatomical observations.

In the case of GYTFTDYSMH [Pep8], the “cross-reactivity of raised Abs with Peps 4, 7 or 10 (ELISA)” value in assay [1] was “did not cross-react”. Also, the “structures recognized by immune sera in infected cells” value (shortened to “structures recognized by immune sera”) in assay [2] was “recognized targets in the inclusion matrix and membrane”. The “bacterial shedding measured by DFA staining” value in assay [3] was “reduced bacterial shedding”. The “ELISA 1:40 on 4 peptides Scale: 1+-3+” value in assay [4] (human serum sample # 1) came to 2; in assay [4] (human serum sample # 2), 1; in assay [4] (human serum sample # 3) it was 2.5; in assay [4] (human serum sample # 5) it was 2; in assay [4] (human serum sample # 7) it was 1; in assay [4] (human serum sample # 8), 3. The “ELISA 1:40 on 4 peptides Scale: 1+-3+” value in assay [4] (human serum sample # 9) is given as 3; in assay [4] (human serum sample # 10), 2; in assay [4] (human serum sample # 12), 2; in assay [4] (human serum sample # 13), 2; in assay [4] (human serum sample # 16) it was 1.5; in assay [4] (human serum sample # 18), 3. Besides, the “ELISA 1:40 on 4 peptides Scale: 1+-3+” value in assay [4] (human serum sample # 21) was 3; in assay [4] (human serum sample # 22), 1.5; in assay [4] (human serum sample # 23), 1.5; in assay [4] (human serum sample # 24), 2; in assay [4] (human serum sample # 26) it was 2.
Regarding HALMPATAVASL [Pep7], the “cross-reactivity of raised Abs with Pep4 (ELISA)” value in assay [1] is on record as “cross reacted”. Also, the “structures recognized by immune sera” value in assay [2] is “recognized EB and metabolically active, non-infectious reticulate bodies (RB)”. The “gross inflammation / pathology of the genital tract” value in assay [5] is “not nearly as inflamed”. Further, the “ELISA 1:40 on 4 peptides Scale: 1+-3+” value in assay [4] (human serum sample # 1) was determined as 1.5; in assay [4] (human serum sample # 2), 1; in assay [4] (human serum sample # 3), 2.5; in assay [4] (human serum sample # 5) it was 2; in assay [4] (human serum sample # 7), 0.75; in assay [4] (human serum sample # 8), 3. For the same sequence, the “ELISA 1:40 on 4 peptides Scale: 1+-3+” value in assay [4] (human serum sample # 9) is 3; in assay [4] (human serum sample # 10), 2; in assay [4] (human serum sample # 12), 1.5; in assay [4] (human serum sample # 13), 2; in assay [4] (human serum sample # 16) it was 1.5; in assay [4] (human serum sample # 18), 3. The “ELISA 1:40 on 4 peptides Scale: 1+-3+” value in assay [4] (human serum sample # 21) is 2; in assay [4] (human serum sample # 22), 1.5; in assay [4] (human serum sample # 23), 1.5; in assay [4] (human serum sample # 24), 1.5; in assay [4] (human serum sample # 26), 2.
For the sequence RYDVGGDHYYFTMD [Pep10], the “structures recognized by immune sera” value in assay [2] was “recognized targets in the inclusion matrix and membrane”. The “ELISA 1:40 on 4 peptides Scale: 1+-3+” value in assay [4] (human serum sample # 1) is listed as 2; in assay [4] (human serum sample # 2) it was 1; in assay [4] (human serum sample # 3) it was 2.5; in assay [4] (human serum sample # 5) it was 1.5; in assay [4] (human serum sample # 7), 1; in assay [4] (human serum sample # 8), 3. For the same sequence, the “ELISA 1:40 on 4 peptides Scale: 1+-3+” value in assay [4] (human serum sample # 9) is 3; in assay [4] (human serum sample # 10), 2; in assay [4] (human serum sample # 12) it was 2; in assay [4] (human serum sample # 13), 2; in assay [4] (human serum sample # 16), 1; in assay [4] (human serum sample # 18) it was 2. Also, the “ELISA 1:40 on 4 peptides Scale: 1+-3+” value in assay [4] (human serum sample # 21) came out at 3; in assay [4] (human serum sample # 22), 2; in assay [4] (human serum sample # 23), 1; in assay [4] (human serum sample # 24), 2; in assay [4] (human serum sample # 26), 1.5.
